Measured values reported in patent US12576087B2, “Aryloxypiperidine pyrazole compounds as indoleamine 2,3-dioxygenase inhibitors” (Merck Sharp & Dohme LLC, priority 2018, dated 2026).

Molecular target: IDO1 (Homo sapiens, UniProt P14902)
Assay: IDO1 Human Whole Blood Assay
Assay type: cell-based
Settings: WBLD taken as whole blood; read-out: WBLD IC50
Experimental: Compounds to be tested were serially diluted in ten 3-fold steps in DMSO starting from 10 mM. 3 μL of compound dilutions or DMSO alone were then dispensed from the dilution plate into a polypropylene 96-well assay plate containing 97 μL of RPMI medium using an Echo 555 acoustic liquid handler (Labcyte). LPS and IFNγ was prepared in RPMI medium to a 10× of final conc. (1000 ng/mL), final concentration is 100 ng/mL.
Human whole blood was drawn in sodium heparin coated tubes from healthy internal donors. 240 μL of blood was transferred to each of the wells of a v-bottom 96 well plate. 30 μL of compound was transferred from intermediate dilution plate, and incubated for 15 min. 30 μL from stimulants was then transferred to blood and mixed thoroughly. Plate was covered with breathable membrane and incubated at 37° C. for overnight (18 h).
On day 2, isotope labeled standard solutions of kunurenine and tryptophan was made in water at 10× concentration and 30 μL was added to the blood at 3 μM final concentration. The assay plates were centrifuged at 300×G for 10 min with no brake to separate plasma from red blood cells. 60 μL of plasma samples was removed without disturbing red blood cells. Plasma was diluted with RPMI in 1:1 ratio and proteins were precipitated out with two volumes of Acetonitrile. The plates were centrifuged at 4000×G for 60 min. 20 μL of supernatant was carefully transferred to a 384 well plate containing 40 μL of 0.1% formic acid in water and analyzed by LC/MS/MS.
LC/MS/MS analyses were performed using Thermo Fisher's LX4-TSQ Quantum Ultra system. This system consists of four Agilent binary high-performance liquid chromatography (HPLC) pumps and a TSQ Quantum Ultra triple quadrupole MS/MS instrument. For each sample, 5 μL were injected onto an Atlantis T3 column (2.1 mm×150 mm, 3 μm particle size) from Waters. The mobile phase gradient pumped at 0.8 mL/min was used to elute the analytes from the column at 25° C. The elution started at 0% B increasing linearly to 25% B at 6.5 min, holding at 25% for 1 min, re-equilibrating to 10 min. Mobile phase A consisted of 0.1% formic acid in water. Mobile phase B consisted of 0.1% of formic acid in acetonitrile. Data were acquired in positive mode using a HESI interface. The operational parameters for the TSQ Quantum Ultra instrument were a spray voltage of 4000 V, capillary temperature of 380° C., vaporizer temperature 400° C., shealth gas 60 arbitrary units, Aux gas 20 arbitrary units, tube lens 85 and collision gas 1.2 mTorr. SRM chromatograms of kynurenine (Q1: 209.2>Q3:94.0) and internal standard (Q1: 215.3>Q3:98.2) were collected for 90 sec. The peak area was integrated by Xcalibur Quan software. The ratios between the kynurenine generated in the reaction and 2D6-Kynurenine spiked-in internal standard were used to generate percentage inhibition and IC50 values. Compounds were titrated and IC50's were calculated by 4 parameter sigmoidal curve fitting formula.

Sequence of IDO1 (P14902 whole entry): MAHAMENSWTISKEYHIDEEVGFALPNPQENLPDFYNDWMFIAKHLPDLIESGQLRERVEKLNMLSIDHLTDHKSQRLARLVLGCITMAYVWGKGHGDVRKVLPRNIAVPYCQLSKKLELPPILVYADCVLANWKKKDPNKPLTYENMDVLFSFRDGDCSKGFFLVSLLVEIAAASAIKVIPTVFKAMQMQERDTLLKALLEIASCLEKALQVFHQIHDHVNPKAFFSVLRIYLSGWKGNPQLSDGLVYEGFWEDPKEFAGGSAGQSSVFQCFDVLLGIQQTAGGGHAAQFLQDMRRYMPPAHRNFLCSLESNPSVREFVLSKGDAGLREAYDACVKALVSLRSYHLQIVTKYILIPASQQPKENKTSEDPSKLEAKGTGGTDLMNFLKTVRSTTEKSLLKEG

Row | SMILES | IC50 [nM]
1 | CC(=O)NC1CCN(C(=O)c2nn(CC(=O)N3CCC(Oc4ccccc4Cl)CC3)c3c2CCCC3)CC1 [Example 6, N-(1-(1-(2-(4-(2-chlorophenoxy)piperidin-1-yl)-2-oxoethyl)-4,5,6,7-tetrahydro-1H-indazole-3-carbonyl)piperidin-4-yl)acetamide] | 596
2 | C[C@@H]1CN(C(=O)c2nn(CC(=O)N3CCC(Oc4ccc(Cl)c5c4CCC5)CC3)c3c2CCC3)C[C@H](C)O1 [Example 129, 1-{4-[(7-chloro-2,3-dihydro-1H-inden-4-yl)oxy]piperidin-1-yl}-2-{3-[(2R,6S)-2,6-dimethylmorpholine-4-carbonyl]-5,6-dihydrocyclopenta[c]pyrazol-1(4H)-yl}ethan-1-one] | 3320
3 | Cc1ccc(OC2CCN(C(=O)Cn3nc(C(=O)N4C[C@@H](C)O[C@@H](C)C4)c4c3CCC4)CC2)cc1 [Example 95, 2-{3-[(2R,6S)-2,6-dimethylmorpholine-4-carbonyl]-5,6-dihydrocyclopenta[c]pyrazol-1(4H)-yl}-1-[4-(4-methylphenoxy)piperidin-1-yl]ethan-1-one] | 360
4 | C[C@@H]1C[C@H](Oc2ncccc2C(F)(F)F)CCN1C(=O)Cn1nc(C(=O)N2CCC(OCCO)CC2)c2c1C[C@H]1C[C@@H]21 [Example 8, 2-((3bR,4aR)-3-(4-(2-hydroxyethoxy)piperidine-1-carbonyl)-3b,4,4a,5-tetrahydro-1H-cyclopropa[3,4]cyclopenta[1,2-c]pyrazol-1-yl)-1-((2R,4R)-2-methyl-4-((3-(trifluoromethyl)pyridin-2-yl)oxy)piperidin-1-yl)ethanone] | 212
5 | Cc1ccccc1OC1CCN(C(=O)Cn2nc(C(=O)N3CC[C@H](O)[C@H](F)C3)c3c2CCCC3)CC1 [Example 31, 2-(3-((3R,4S)-3-fluoro-4-hydroxypiperidine-1-carbonyl)-4,5,6,7-tetrahydro-1H-indazol-1-yl)-1-(4-(o-tolyloxy)piperidin-1-yl)ethanone] | 590
6 | C[C@@H]1CN(C(=O)c2nn(CC(=O)N3CCC(Oc4cccc(F)c4)CC3)c3c2CCC3)C[C@H](C)O1 [Example 99, 2-{3-[(2R,6S)-2,6-dimethylmorpholine-4-carbonyl]-5,6-dihydrocyclopenta[c]pyrazol-1(4H)-yl}-1-[4-(3-fluorophenoxy)piperidin-1-yl]ethan-1-one] | 575
7 | Cc1cc(F)ccc1OC1CCN(C(=O)Cn2nc(C(=O)N3CC[C@H](O)[C@H](F)C3)c3c2CCCC3)CC1 (racemic) [Example 77, 1-[4-(4-fluoro-2-methyl-phenoxy)-1-piperidyl]-2-[3-[rac-(3R,4S)-3-fluoro-4-hydroxy-piperidine-1-carbonyl]-4,5,6,7-tetrahydroindazol-1-yl]ethanone] | 267
8 | CC(=O)NC1CCN(C(=O)c2nn(CC(=O)N3CCC(Oc4ccccc4C)CC3)c3c2CCCC3)CC1 [Example 24, N-(1-(1-(2-oxo-2-(4-(o-tolyloxy)piperidin-1-yl)ethyl)-4,5,6,7-tetrahydro-1H-indazole-3-carbonyl)piperidin-4-yl)acetamide] | 314
9 | Cc1cc(F)ccc1OC1CCN(C(=O)Cn2nc(C(=O)N3CCC(F)(CO)CC3)c3c2CCC3)CC1 [Example 80, 2-[3-[4-fluoro-4-(hydroxymethyl)piperidine-1-carbonyl]-5,6-dihydro-4H-cyclopenta[c]pyrazol-1-yl]-1-[4-(4-fluoro-2-methyl-phenoxy)-1-piperidyl]ethanone] | 259

The remaining lines, values ahead:

Row | IC50 [nM] | SMILES
10 | 142 | Cc1ccc(F)cc1OC1CCN(C(=O)Cn2nc(C(=O)N3C[C@@H](C)O[C@@H](C)C3)c3c2CCC3)CC1 [Example 90, 2-(3-(cis-2,6-Dimethylmorpholine-4-carbonyl)-5,6-dihydrocyclopenta[c]pyrazol-1(4H)-yl)-1-(4-(5-fluoro-2-methylphenoxy)piperidin-1-yl)ethan-1-one]
11 | 140 | Cc1ccccc1OC1CCN(C(=O)Cn2nc(C(=O)N3CCC(O)(CF)CC3)c3c2CCC3)CC1 [Example 35, 2-(3-(4-(fluoromethyl)-4-hydroxypiperidine-1-carbonyl)-5,6-dihydrocyclopenta[c]pyrazol-1(4H)-yl)-1-(4-(o-tolyloxy)piperidin-1-yl)ethanone]
12 | 140 | Cc1cc(F)ccc1OC1CCN(C(=O)Cn2nc(C(=O)N3CCN(C(=O)CO)CC3)c3c2CCCC3)CC1 [Example 79, 1-[4-(4-fluoro-2-methyl-phenoxy)-1-piperidyl]-2-[3-[4-(2-hydroxyacetyl)piperazine-1-carbonyl]-4,5,6,7-tetrahydroindazol-1-yl]ethanone]
13 | 112 | Cc1ccc(F)cc1OC1CCN(C(=O)Cn2nc(C(=O)N3C[C@@H](C)O[C@@H](C)C3)c3c2CCC3)CC1 [Example 135, 2-[3-(2,6-dimethylmorpholine-4-carbonyl)-5,6-dihydrocyclopenta[c]pyrazol-1(4H)-yl]-1-[4-(5-fluoro-2-methylphenoxy)piperidin-1-yl]ethan-1-one]
14 | 108 | Cc1ccccc1OC1CCN(C(=O)Cn2nc(C(=O)N3CC[C@@H](O)[C@@H](F)C3)c3c2CCCC3)CC1 [Example 36, 2-(3-((3S,4R)-3-fluoro-4-hydroxypiperidine-1-carbonyl)-4,5,6,7-tetrahydro-1H-indazol-1-yl)-1-(4-(o-tolyloxy)piperidin-1-yl)ethanone]
15 | 92.4 | Cc1ccccc1OC1CCN(C(=O)Cn2nc(C(=O)N3CCC(O)(C(F)F)CC3)c3c2CCCC3)CC1 [Example 22, 2-(3-(4-(difluoromethyl)-4-hydroxypiperidine-1-carbonyl)-4,5,6,7-tetrahydro-1H-indazol-1-yl)-1-(4-(o-tolyloxy)piperidin-1-yl)ethanone]
16 | 59.8 | Cc1cc(F)ccc1OC1CCN(C(=O)Cn2nc(C(=O)N3CCC(OCCO)CC3)c3c2CCCC3)CC1 [Example 76, 1-[4-(4-fluoro-2-methyl-phenoxy)-1-piperidyl]-2-[3-[4-(2-hydroxyethoxy)piperidine-1-carbonyl]-4,5,6,7-tetrahydroindazol-1-yl]ethanone]
17 | 49.2 | Cc1c(F)cccc1OC1CCN(C(=O)Cn2nc(C(=O)N3C[C@@H](C)O[C@@H](C)C3)c3c2CCC3)CC1 [Example 128, 2-{3-[(2R,6S)-2,6-dimethylmorpholine-4-carbonyl]-5,6-dihydrocyclopenta[c]pyrazol-1(4H)-yl}-1-[4-(3-fluoro-2-methylphenoxy)piperidin-1-yl]ethan-1-one]
18 | 46.8 | Cc1ccccc1OC1CCN(C(=O)Cn2nc(C(=O)N3C[C@@H](C)O[C@@H](C)C3)c3c2CCC3)CC1 [Example 116, 2-{3-[(2R,6S)-2,6-dimethylmorpholine-4-carbonyl]-5,6-dihydrocyclopenta[c]pyrazol-1(4H)-yl}-1-[4-(2-methylphenoxy)piperidin-1-yl]ethan-1-one]
19 | 33 | Cc1ccccc1OC1CCN(C(=O)Cn2nc(C(=O)N3CCN(C(=O)CO)CC3)c3c2CCCC3)CC1 [Example 38, 2-hydroxy-1-(4-(1-(2-oxo-2-(4-(o-tolyloxy)piperidin-1-yl)ethyl)-4,5,6,7-tetrahydro-1H-indazole-3-carbonyl)piperazin-1-yl)ethanone]
20 | 26.3 | Cc1ccccc1OC1CCN(C(=O)Cn2nc(C(=O)N3CC[C@@H](O)[C@@H](F)C3)c3c2C[C@H]2C[C@@H]32)CC1 [Example 27, 2-((3bR,4aR)-3-((3S,4R)-3-fluoro-4-hydroxypiperidine-1-carbonyl)-3b,4,4a,5-tetrahydro-1H-cyclopropa[3,4]cyclopenta[1,2-c]pyrazol-1-yl)-1-(4-(o-tolyloxy)piperidin-1-yl)ethanone]
21 | 19.7 | Cc1cc(F)ccc1OC1CCN(C(=O)Cn2nc(C(=O)N3CCC(F)(CO)CC3)c3c2CCCC3)CC1 [Example 78, 2-[3-[4-fluoro-4-(hydroxymethyl)piperidine-1-carbonyl]-4,5,6,7-tetrahydroindazol-1-yl]-1-[4-(4-fluoro-2-methyl-phenoxy)-1-piperidyl]ethanone]

Same assay, conditions: human whole blood, LPS and IFNγ 100 ng/mL, 18 h, kynurenine by LC/MS/MS; read-out: IDO1 human whole blood assay, IC50

Row | IC50 [nM] | SMILES
22 | 378 | CCOC(=O)c1nn(CC(=O)N2CC[C@@H](Oc3ccccc3Cl)C[C@H]2C)c2c1CCCC2 [Example 11, ethyl 1-(2-((2R,4R)-4-(2-chlorophenoxy)-2-methylpiperidin-1-yl)-2-oxoethyl)-4,5,6,7-tetrahydro-1H-indazole-3-carboxylate]
